Data: the NIST ThermoML archive (doi:10.1016/j.jct.2013.03.015)

Test: molar heat capacity at constant pressure; xn = mol fraction of the nth substance listed
Conditions: 101 kPa, Crystal, relaxation calorimetry - PPMS by Quantum Design

[Cl-].[K+] [potassium chloride] + [Cl-].[Na+]
Conditions	molar heat capacity at constant pressure [J/K/mol]
5.041 K, x2 = 0.9	0.0176
5.086 K, x2 = 0.2	0.0361
5.095 K, x2 = 0.1	0.0387
5.409 K, x2 = 0.9	0.0219
5.454 K, x2 = 0.2	0.0452
5.458 K, x2 = 0.1	0.0485
5.793 K, x2 = 0.9	0.027
5.856 K, x2 = 0.2	0.0564
5.879 K, x2 = 0.1	0.0601
6.208 K, x2 = 0.9	0.0335
6.274 K, x2 = 0.2	0.07
6.294 K, x2 = 0.1	0.0738
6.664 K, x2 = 0.9	0.0417
6.728 K, x2 = 0.2	0.0878
6.752 K, x2 = 0.1	0.0936
7.14 K, x2 = 0.9	0.0518
7.176 K, x2 = 0.2	0.1084
7.188 K, x2 = 0.1	0.1141
7.653 K, x2 = 0.9	0.0641
7.691 K, x2 = 0.2	0.1356
7.702 K, x2 = 0.1	0.1425
8.202 K, x2 = 0.9	0.0801
8.238 K, x2 = 0.2	0.1702
8.252 K, x2 = 0.1	0.1787
8.791 K, x2 = 0.9	0.1001
8.829 K, x2 = 0.2	0.215
8.84 K, x2 = 0.1	0.2244
9.422 K, x2 = 0.9	0.1252
9.461 K, x2 = 0.2	0.2712
9.475 K, x2 = 0.1	0.2828
10.1 K, x2 = 0.9	0.157
10.14 K, x2 = 0.2	0.3435
10.15 K, x2 = 0.1	0.357
10.83 K, x2 = 0.9	0.198
10.87 K, x2 = 0.2	0.4354
10.89 K, x2 = 0.1	0.4512
11.61 K, x2 = 0.9	0.2499
11.65 K, x2 = 0.2	0.5511
11.67 K, x2 = 0.1	0.5685
12.45 K, x2 = 0.9	0.3169
12.48 K, x2 = 0.2	0.6946
12.5 K, x2 = 0.1	0.7153
13.34 K, x2 = 0.9	0.4021
13.38 K, x2 = 0.2	0.8732
13.4 K, x2 = 0.1	0.8969
14.23 K, x2 = 0.9	0.51
14.34 K, x2 = 0.2	1.092
14.36 K, x2 = 0.1	1.12
15.33 K, x2 = 0.9	0.6479
15.37 K, x2 = 0.2	1.362
15.39 K, x2 = 0.1	1.395
16.43 K, x2 = 0.9	0.8219
16.47 K, x2 = 0.2	1.691
16.49 K, x2 = 0.1	1.726
17.61 K, x2 = 0.9	1.04
17.65 K, x2 = 0.2	2.087
17.67 K, x2 = 0.1	2.125
18.87 K, x2 = 0.9	1.31
18.91 K, x2 = 0.2	2.55
18.94 K, x2 = 0.1	2.599
20.24 K, x2 = 0.9	1.649
20.26 K, x2 = 0.2	3.105
20.29 K, x2 = 0.1	3.156
21.7 K, x2 = 0.9	2.061
21.71 K, x2 = 0.2	3.756
21.74 K, x2 = 0.1	3.81
23.25 K, x2 = 0.9	2.563
23.26 K, x2 = 0.2	4.514
23.29 K, x2 = 0.1	4.578
24.92 K, x2 = 0.9	3.165
24.93 K, x2 = 0.2	5.396
24.96 K, x2 = 0.1	5.463
26.71 K, x2 = 0.9	3.859
26.72 K, x2 = 0.2	6.429
26.74 K, x2 = 0.1	6.508
28.63 K, x2 = 0.2	7.596
28.64 K, x2 = 0.9	4.716
28.66 K, x2 = 0.1	7.674
30.69 K, x2 = 0.2	8.768
30.7 K, x2 = 0.9	5.671
30.71 K, x2 = 0.1	8.824
32.89 K, x2 = 0.2	10.16
32.9 K, x2 = 0.9	6.785
32.91 K, x2 = 0.1	10.29
35.25 K, x2 = 0.2	11.67
35.27 K, x2 = 0.9	8.039
35.28 K, x2 = 0.1	11.82
37.78 K, x2 = 0.2	13.3
37.81 K, x2 = 0.1	13.48
37.81 K, x2 = 0.9	9.437
40.5 K, x2 = 0.2	15.06
40.52 K, x2 = 0.1	15.25
40.53 K, x2 = 0.9	10.98
43.41 K, x2 = 0.2	16.89
43.43 K, x2 = 0.1	17.11
43.45 K, x2 = 0.9	12.63
46.53 K, x2 = 0.2	18.81
46.57 K, x2 = 0.1	19.04
46.58 K, x2 = 0.9	14.4
49.87 K, x2 = 0.2	20.73
49.91 K, x2 = 0.1	21.01
49.93 K, x2 = 0.9	16.28
53.47 K, x2 = 0.2	22.73
53.5 K, x2 = 0.1	23
53.53 K, x2 = 0.9	18.23
57.32 K, x2 = 0.2	24.73
57.34 K, x2 = 0.1	25.02
57.38 K, x2 = 0.9	20.25
61.44 K, x2 = 0.2	26.7
61.47 K, x2 = 0.1	26.98
61.51 K, x2 = 0.9	22.26
65.86 K, x2 = 0.2	28.67
65.89 K, x2 = 0.1	28.95
65.94 K, x2 = 0.9	24.31
70.6 K, x2 = 0.2	30.6
70.63 K, x2 = 0.1	30.88
70.69 K, x2 = 0.9	26.32
75.67 K, x2 = 0.2	32.39
75.7 K, x2 = 0.1	32.61
75.77 K, x2 = 0.9	28.27
81.11 K, x2 = 0.2	34.17
81.13 K, x2 = 0.1	34.4
81.21 K, x2 = 0.9	30.13
86.93 K, x2 = 0.2	35.85
86.95 K, x2 = 0.1	36.07
87.05 K, x2 = 0.9	32.29
93.14 K, x2 = 0.1	37.49
93.15 K, x2 = 0.2	37.32
93.3 K, x2 = 0.9	34.01
99.83 K, x2 = 0.1	39.05
99.85 K, x2 = 0.2	38.84
100.02 K, x2 = 0.9	35.79
107.02 K, x2 = 0.1	40.33
107.03 K, x2 = 0.2	40.15
107.21 K, x2 = 0.9	37.38
114.72 K, x2 = 0.1	41.63
114.72 K, x2 = 0.2	41.45
114.92 K, x2 = 0.9	38.92
122.97 K, x2 = 0.1	42.71
122.97 K, x2 = 0.2	42.57
123.18 K, x2 = 0.9	40.27
131.81 K, x2 = 0.1	43.7
131.82 K, x2 = 0.2	43.53
132.04 K, x2 = 0.9	41.45
141.3 K, x2 = 0.1	44.69
141.3 K, x2 = 0.2	44.51
141.54 K, x2 = 0.9	42.61
151.45 K, x2 = 0.2	45.39
151.46 K, x2 = 0.1	45.56
151.71 K, x2 = 0.9	43.67
162.35 K, x2 = 0.2	46.18
162.37 K, x2 = 0.1	46.3
162.61 K, x2 = 0.9	44.81
174.02 K, x2 = 0.2	46.93
174.06 K, x2 = 0.1	47.07
174.32 K, x2 = 0.9	45.52
186.55 K, x2 = 0.2	47.5
186.58 K, x2 = 0.1	47.69
186.88 K, x2 = 0.9	46.21
199.96 K, x2 = 0.2	48.19
199.99 K, x2 = 0.1	48.31
200.33 K, x2 = 0.9	47.11
214.35 K, x2 = 0.2	48.72
214.36 K, x2 = 0.1	48.85
214.74 K, x2 = 0.9	47.78
229.74 K, x2 = 0.2	49.19
229.76 K, x2 = 0.1	49.26
230.17 K, x2 = 0.9	48.37
246.25 K, x2 = 0.2	49.8
246.27 K, x2 = 0.1	49.83
246.73 K, x2 = 0.9	49.07
263.91 K, x2 = 0.2	50.18
263.93 K, x2 = 0.1	50.3
264.44 K, x2 = 0.9	49.55
282.86 K, x2 = 0.2	50.68
282.87 K, x2 = 0.1	50.88
283.42 K, x2 = 0.9	50.22
303.12 K, x2 = 0.2	51.21
303.18 K, x2 = 0.1	51.27
303.77 K, x2 = 0.9	50.61
